The compounds below were run on Bacillus coagulans, subspecies Hammer (ATCC-31284) (assay: Vitek machine-based antibiotic susceptibility testing of Bacillus coagulans). Conditions: 500 μg/ml.
Type: cell-based
For gentamicin, the “Susceptibility of Bacillus coagulans to the antibiotic, Vitek testing” value (“Susceptibility … Vitek testing” for short) was “Susceptible”.

Same assay, conditions: 2,000 μg/ml
`[H]/N=C(/N)N[C@H]1[C@H](O)[C@@H](O)[C@H](O[C@@H]2O[C@@H](C)[C@](O)(C=O)[C@H]2O[C@@H]2O[C@@H](CO)[C@H](O)[C@@H](O)[C@@H]2NC)[C@@H](N/C(N)=N\[H])[C@@H]1O` [streptomycin] was tested, and the “Susceptibility … Vitek testing” value was “Susceptible”.

Same assay, conditions: optical density of culture
In the case of `O=C(N[C@H](CO)[C@H](O)c1ccc([N+](=O)[O-])cc1)C(Cl)Cl` [chloramphenicol], the “Susceptibility … Vitek testing” value is reported as “Susceptible”.
`CCn1cc(C(=O)O)c(=O)c2cc(F)c(N3CCNCC3)cc21` [norfloxacin] was tested, and the “Susceptibility … Vitek testing” value was “Susceptible”.
`CN[C@H](CC(C)C)C(=O)N[C@H]1C(=O)N[C@@H](CC(N)=O)C(=O)N[C@H]2C(=O)N[C@H]3C(=O)N[C@H](C(=O)N[C@H](C(=O)O)c4cc(O)cc(O)c4-c4cc3ccc4O)[C@H](O)c3ccc(c(Cl)c3)Oc3cc2cc(c3O[C@@H]2O[C@H](CO)[C@@H](O)[C@H](O)[C@H]2O[C@H]2C[C@](C)(N)[C@H](O)[C@H](C)O2)Oc2ccc(cc2Cl)[C@H]1O` [vancomycin] was tested, and the “Susceptibility … Vitek testing” value was “Susceptible”.
In the case of penicillin, the “Susceptibility … Vitek testing” value is reported as “Susceptible”.

Each compound was assayed on Bacillus coagulans, subspecies Hammer (ATCC-31284) (assay: Kirby-Bauer antibiotic susceptibility testing of Bacillus coagulans). Conditions: inhibition zone diameter (disk diffusion).
Type: cell-based
`CC1(C)S[C@@H]2[C@H](NC(=O)[C@H](N)c3ccccc3)C(=O)N2[C@H]1C(=O)O` [ampicillin] was tested, and the “Susceptibility of Bacillus coagulans to the antibiotic, Kirby-Bauer testing” value (“Susceptibility … Kirby-Bauer testing” for short) was “Susceptible”.
For `O=C(O)c1cn(C2CC2)c2cc(N3CCNCC3)c(F)cc2c1=O` [ciprofloxacin], the “Susceptibility … Kirby-Bauer testing” value was “Susceptible”.
In the case of `CC[C@H]1OC(=O)[C@H](C)[C@@H](O[C@H]2C[C@@](C)(OC)[C@@H](O)[C@H](C)O2)[C@H](C)[C@@H](O[C@@H]2O[C@H](C)C[C@H](N(C)C)[C@H]2O)[C@](C)(O)C[C@@H](C)C(=O)[C@H](C)[C@@H](O)[C@]1(C)O` [erythromycin], the “Susceptibility … Kirby-Bauer testing” value is reported as “Susceptible”.
`Cc1onc(-c2ccccc2)c1C(=O)N[C@@H]1C(=O)N2[C@@H]1SC(C)(C)[C@@H]2C(=O)O` [oxacillin] was tested, and the “Susceptibility … Kirby-Bauer testing” value was “Susceptible”.
For `CO[C@H]1/C=C/O[C@@]2(C)Oc3c(C)c(O)c4c(O)c(c(/C=N/N5CCN(C)CC5)c(O)c4c3C2=O)NC(=O)/C(C)=C\C=C\[C@H](C)[C@H](O)[C@@H](C)[C@@H](O)[C@@H](C)[C@H](OC(C)=O)[C@@H]1C` [rifampin], the “Susceptibility … Kirby-Bauer testing” value was “Susceptible”.
For `CN[C@H](CC(C)C)C(=O)N[C@H]1C(=O)N[C@@H](CC(N)=O)C(=O)N[C@H]2C(=O)N[C@H]3C(=O)N[C@H](C(=O)N[C@H](C(=O)O)c4cc(O)cc(O)c4-c4cc3ccc4O)[C@H](O)c3ccc(c(Cl)c3)Oc3cc2cc(c3O[C@@H]2O[C@H](CO)[C@@H](O)[C@H](O)[C@H]2O[C@H]2C[C@](C)(N)[C@H](O)[C@H](C)O2)Oc2ccc(cc2Cl)[C@H]1O` [vancomycin], the “Susceptibility … Kirby-Bauer testing” value was “Susceptible”.
With gentamicin the “Susceptibility … Kirby-Bauer testing” value was “Susceptible”.
trimethoprim-sulfamethoxazole was tested, and the “Susceptibility … Kirby-Bauer testing” value was “Susceptible”.

Reference: patent publication US6849256B1, “Inhibition of pathogens by probiotic bacteria” (priority 1999, dated 2005)
